Values quoted from earlier work, collected in paper PMC11457607 (Oncoimmunology, 2024).

Tests used:
[1] = clinical diagnostic dye, i.v.
SSTR2 = settings: cyclic peptide agonist; in words
SSTR5 = settings: cyclic peptide agonist; in words
NETs = settings: local irradiation, clinical trials

O=C1OC2(c3ccc(O)cc3Oc3cc(O)ccc32)c2ccccc21 [fluorescein]
safety of intravenous injection [1]: without reported overt safety concerns

DOTA-Tyr[3]-octreotate [DOTA-TATE]
affinity to SSTR2 (SSTR2): high affinity to SSTR2 | affinity to SSTR5 (SSTR5): binds with a high affinity to SSTR2 and SSTR5

[^177Lu]Lu-DOTA-TATE
slowing progression of NETs (NETs): high specificity and efficacy in slowing the progression of NETs
